Test results published in article PMC10810264 (Microchemical journal : devoted to the application of …, 2023).
In brackets after ≈: the same amount, converted by molar mass.

What follows are molecules tested on anti-GEN scFv-AP fusion protein (assay: direct competitive ELISA). Conditions: dcELISA, AP substrate p-nitrophenyl phosphate, OD 405 nm.
Format: binding, murine

Molecule	IC50
CNC(C)C1CCC(N)C(OC2C(N)CC(N)C(OC3OCC(C)(O)C(NC)C3O)C2O)O1 (stereo not shown) [Gentamicin]	7.693 ng/mL (≈ 0.0161 µM)

These molecules were tested on anti-GEN scFv-AP fusion protein (assay: direct competitive chemiluminescent enzyme immunoassay). Conditions: dcCLEIA; CR=[IC50(gentamicin)/IC50(analyte)]×100%.
Format: binding, murine

Molecule	Cross-reactivity
O=C(N[C@H](CO)[C@H](O)c1ccc([N+](=O)[O-])cc1)C(Cl)Cl [Chloramphenicol]	<0.10%
CNC(C)C1CCC(N)C(OC2C(N)CC(N)C(OC3OCC(C)(O)C(NC)C3O)C2O)O1 (stereo not shown) [Gentamicin]	100%
NC[C@H]1O[C@H](O[C@H]2[C@H](O)[C@@H](O[C@H]3O[C@H](CO)[C@@H](O)[C@H](N)[C@H]3O)[C@H](N)C[C@@H]2N)[C@H](O)[C@@H](O)[C@@H]1O [kanamycin]	<0.10%
Neomycin	<0.10%
[H]/N=C(/N)N[C@H]1[C@H](O)[C@@H](O)[C@H](O[C@@H]2O[C@@H](C)[C@](O)(C=O)[C@H]2O[C@@H]2O[C@@H](CO)[C@H](O)[C@@H](O)[C@@H]2NC)[C@@H](N/C(N)=N\[H])[C@@H]1O [Streptomycin]	<0.10%
CC1(C)S[C@@H]2[C@H](NC(=O)[C@H](N)c3ccccc3)C(=O)N2[C@H]1C(=O)O [Ampicillin]	<0.10%
